Read-outs that look alike come from different tables or passages of the source.
Assays:
TNFα = test: IRAK4 Monocyte TNFα Cell Based Assay; design: species or system human
Outline: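 Human monocytes (5,000/well) pretreated with compound 1 h at 37 °C (0.1% DMSO final), then stimulated with 50 pg/ml LPS for 4 h. Secreted TNFα measured by TR-FRET two-antibody detection after overnight incubation at room temperature; % control relative to unstimulated and LPS-stimulated wells.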

IRAK4 enzyme = IRAK4 enzyme (Homo sapiens (Human), UniProt Q9NWZ3); test: IRAK4 Biochemical Assay (TR-FRET, STK1 KinEASE)
Outline: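 IRAK4 (0.75 nM) preincubated 15 min with compound and […] STK1 peptide, then started with 500 μM ATP in HEPES pH 7.0 buffer with MgCl2, DTT, BSA, NP-40; 120 min at room temperature.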

[1] = Homo sapiens, Monocyte, human monocytes, second part of Table 2, compounds 33-343, unit inferred, read-out: EC50 MONO TNF HTRF
[2] = Homo sapiens, Monocyte, read-out: EC50 MONO TNF HTRF
[3] = Homo sapiens, Monocyte, human monocytes, LPS stimulated, compounds 1-32, read-out: EC50 TNF
[4] = compounds 1-32, read-out: IC50 HTRF
[5] = human monocytes, second part of Table 2, compounds 33-343, unit inferred, read-out: EC50 MONO TNF HTRF
[6] = second part of Table 2, compounds 33-343, unit inferred, read-out: IC50 IRAK4-HTBS

Sequence of IRAK4 enzyme (Q9NWZ3 whole entry): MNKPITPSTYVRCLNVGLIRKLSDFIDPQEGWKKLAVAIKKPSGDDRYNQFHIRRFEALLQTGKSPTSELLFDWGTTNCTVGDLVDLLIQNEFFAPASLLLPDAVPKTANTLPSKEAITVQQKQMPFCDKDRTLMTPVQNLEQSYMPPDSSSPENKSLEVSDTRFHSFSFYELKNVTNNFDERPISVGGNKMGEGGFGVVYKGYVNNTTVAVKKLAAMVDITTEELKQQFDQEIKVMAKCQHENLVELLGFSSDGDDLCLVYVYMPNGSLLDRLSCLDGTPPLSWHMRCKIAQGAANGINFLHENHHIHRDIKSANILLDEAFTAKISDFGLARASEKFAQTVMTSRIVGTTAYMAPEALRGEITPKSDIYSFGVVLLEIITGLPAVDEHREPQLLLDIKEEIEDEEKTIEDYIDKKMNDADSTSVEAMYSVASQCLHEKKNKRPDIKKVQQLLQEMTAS

Compound | EC50 (TNFα; [1]) [nM] | IC50 (IRAK4 enzyme) [nM] | other results
CC(=O)NC1CC2(C1)CN(c1nnc(-c3cnc(-c4ccc5cc(C#N)cnn45)cc3NC(C)C)s1)C2 [Compound 231, N-(2-(5-(6-(3-cyanopyrrolo[1,2-b]pyridazin-7-yl)-4-(isopropylamino)pyridin-3-yl)-1,3,4-thiadiazol-2-yl)-2-azaspiro[3.3]heptan-6-yl)acetamide] | 22.2 | 1.17 | 
CC(C)Nc1cc(-c2ccc3cc(C#N)cnn23)ncc1-c1nnc(N2CC[C@](C)(O)[C@@H](F)C2)s1 [Example 190, 7-(5-(5-((3S,4S)-3-fluoro-4-hydroxy-4-methylpiperidin-1-yl)-1,3,4-thiadiazol-2-yl)-4-(isopropylamino)pyridin-2-yl)pyrrolo[1,2-b]pyridazine-3-carbonitrile] | 11.7 | 1.39 | 
CC(C)Nc1cc(-c2ccc3cc(C#N)cnn23)ncc1-c1nnc(C(=O)N2CC[C@H](CO)C2)s1 [Example 221, (S)-7-(5-(5-(3-(hydroxymethyl)pyrrolidine-1-carbonyl)-1,3,4-thiadiazol-2-yl)-4-(isopropylamino)pyridin-2-yl)pyrrolo[1,2-b]pyridazine-3-carbonitrile] | 2320 | 0.92 | 
CC(=O)N[C@@H]1CC[C@@H](c2nnc(-c3cnc(-c4ccc5cc(C#N)cnn45)cc3NC(C)C)s2)OC1 [Example 81, N-((3R,6S)-6-(5-(6-(3-cyanopyrrolo[1,2-b]pyridazin-7-yl)-4-(isopropylamino)pyridin-3-yl)-1,3,4-thiadiazol-2-yl)tetrahydro-2H-pyran-3-yl)acetamide] | 21.4 | 0.66 | 
CC(C)Nc1cc(-c2ccc3cc(C#N)cnn23)ncc1-c1nnc(N2CC3CC(C2)O3)s1 [Compound 233, 7-(5-(5-(6-oxa-3-azabicyclo[3.1.1]heptan-3-yl)-1,3,4-thiadiazol-2-yl)-4-(isopropylamino)pyridin-2-yl)pyrrolo[1,2-b]pyridazine-3-carbonitrile] |  | 0.35 | EC50 (TNFα; [2]): 6.4 nM
CC(C)Nc1cc(-c2ccc3cc(C#N)cnn23)ncc1-c1nnc(N2C3CC2CN(C(=O)N2CCN(C)CC2)C3)s1 [Compound 277, 7-(4-(isopropylamino)-5-(5-(3-(4-methylpiperazine-1-carbonyl)-3,6-diazabicyclo[3.1.1]heptan-6-yl)-1,3,4-thiadiazol-2-yl)pyridin-2-yl)pyrrolo[1,2-b]pyridazine-3-carbonitrile] |  | 0.93 | EC50 (TNFα; [2]): 11.3 nM
COC(=O)NC[C@H]1C[C@H](Nc2cc(-c3ccc4cc(C#N)cnn34)ncc2-c2nnc([C@H]3CC[C@H](NC(C)=O)CC3)s2)C1 [Example 23, methyl (((1R,3r)-3-((5-(5-((1r,4R)-4-acetamidocyclohexyl)-1,3,4-thiadiazol-2-yl)-2-(3-cyanopyrrolo[1,2-b]pyridazin-7-yl)pyridin-4-yl)amino)cyclobutyl)methyl)carbamate] |  |  | EC50 (TNFα; [3]): 6 nM; IC50 (IRAK4 enzyme; [4]): < 1 nM
CC(=O)N[C@@H]1C[C@@H]2CC[C@H]1N2c1nnc(-c2cnc(-c3ccc4cc(C#N)cnn34)cc2NC(C)C)s1 [Example 141, N-((1R,2R,4S)-7-(5-(6-(3-cyanopyrrolo[1,2-b]pyridazin-7-yl)-4-(isopropylamino)pyridin-3-yl)-1,3,4-thiadiazol-2-yl)-7-azabicyclo[2.2.1]heptan-2-yl)acetamide] |  | 0.5 | EC50 (TNFα; [2]): 18.6 nM
CC(=O)N[C@H]1CC[C@H](c2nnc(-c3cnc(-c4ccc5cc(C#N)cnn45)cc3NC3(C)COC3)s2)CC1 [Example 3, N-((1r,4r)-4-(5-(6-(3-cyanopyrrolo[1,2-b]pyridazin-7-yl)-4-((3-methyloxetan-3-yl)amino)pyridin-3-yl)-1,3,4-thiadiazol-2-yl)cyclohexyl)acetamide] |  |  | EC50 (TNFα; [3]): 15 nM; IC50 (IRAK4 enzyme; [4]): < 1 nM
COC(=O)N[C@@H]1CCN(C(=O)c2nnc(-c3cnc(-c4ccc5cc(C#N)cnn45)cc3NC(C)C)s2)C1 [Example 44, methyl (R)-(1-(5-(6-(3-cyanopyrrolo[1,2-b]pyridazin-7-yl)-4-(isopropylamino)pyridin-3-yl)-1,3,4-thiadiazole-2-carbonyl)pyrrolidin-3-yl)carbamate] | 27.4 | 0.53 | 
CC(C)Nc1cc(-c2ccc3cc(C#N)cnn23)ncc1-c1nnc(N2CCOC(F)(F)C2)s1 [Example 167, 7-(5-(5-(2,2-difluoromorpholino)-1,3,4-thiadiazol-2-yl)-4-(isopropylamino)pyridin-2-yl)pyrrolo[1,2-b]pyridazine-3-carbonitrile] | 1000 | 1.81 | 
CC(=O)N[C@H]1CCCN(c2nnc(-c3cnc(-c4ccc5cc(C#N)cnn45)cc3NC(C)C)s2)C1 [Example 299, (S)-N-(1-(5-(6-(3-cyanopyrrolo[1,2-b]pyridazin-7-yl)-4-(isopropylamino)pyridin-3-yl)-1,3,4-thiadiazol-2-yl)piperidin-3-yl)acetamide] | 41.6 | 0.52 | 
CC(=O)NC1CCC2(C1)CN(c1nnc(-c3cnc(-c4ccc5cc(C#N)cnn45)cc3NC(C)C)s1)C2 (stereo not drawn) [Example 170, N-(2-(5-(6-(3-cyanopyrrolo[1,2-b]pyridazin-7-yl)-4-(isopropylamino)pyridin-3-yl)-1,3,4-thiadiazol-2-yl)-2-azaspiro[3.4]octan-6-yl)acetamide] | 16 | 0.36 | 
CC(=O)NC1CCC2(CC1)CN(c1nnc(-c3cnc(-c4ccc5cc(C#N)cnn45)cc3NC3CCOCC3)s1)C2 [Example 79, N-(2-(5-(6-(3-cyanopyrrolo[1,2-b]pyridazin-7-yl)-4-((tetrahydro-2H-pyran-4-yl)amino)pyridin-3-yl)-1,3,4-thiadiazol-2-yl)-2-azaspiro[3.5]nonan-7-yl)acetamide] | 2.6 | 0.48 | 
(S)-7-(5-(5-(2-(aminomethyl)pyrrolidine-1-carbonyl)-1,3,4-thiadiazol-2-yl)-4-(isopropylamino)pyridin-2-yl)pyrrolo[1,2-b]pyridazine-3-carbonitrile [Compound 242] |  |  | EC50 (TNFα; [5]): 752 nM; IC50 (IRAK4 enzyme; [6]): 2.76 nM
CC(=O)N[C@H]1CCN(c2nnc(-c3cnc(-c4ccc5cc(C#N)cnn45)cc3NC3(C)COC3)s2)CC1(F)F (single isomer, unassigned; isomer 2) [147 Isomer 2] |  |  | EC50 (TNFα; [5]): 24.2 nM; IC50 (IRAK4 enzyme; [6]): 0.62 nM
CC(C)Nc1cc(-c2ccc3cc(C#N)cnn23)ncc1-c1nnc(N2C[C@H]3CC[C@@H](C2)[C@@H]3NC(=O)C2CN(C)C2)s1 [Example 102, N-((1R,5S,8s)-3-(5-(6-(3-cyanopyrrolo[1,2-b]pyridazin-7-yl)-4-(isopropylamino)pyridin-3-yl)-1,3,4-thiadiazol-2-yl)-3-azabicyclo[3.2.1]octan-8-yl)-1-methylazetidine-3-carboxamide] |  |  | EC50 (TNFα; [5]): 31.4 nM; IC50 (IRAK4 enzyme; [6]): 1.22 nM
CC(C)Nc1cc(-c2ccc3cc(C#N)cnn23)ncc1-c1nnc(N2CCN3CCOC[C@@H]3C2)s1 [Example 35, (S)-7-(5-(5-(hexahydropyrazino[2,1-c][1,4]oxazin-8(1H)-yl)-1,3,4-thiadiazol-2-yl)-4-(isopropylamino)pyridin-2-yl)pyrrolo[1,2-b]pyridazine-3-carbonitrile] | 78.2 | 0.87 | 
CNc1cc(-c2ccc3cc(C#N)cnn23)ncc1-c1nnc(N2CC[C@@H](NC(C)=O)C(F)(F)C2)s1 [Example 306, (R)-N-(1-(5-(6-(3-cyanopyrrolo[1,2-b]pyridazin-7-yl)-4-(methylamino)pyridin-3-yl)-1,3,4-thiadiazol-2-yl)-3,3-difluoropiperidin-4-yl)acetamide] | 18.4 | 1.21 | 
C[C@]1(O)CCN(c2nnc(-c3cnc(-c4ccc5cc(C#N)cnn45)cc3NC3CCOCC3)s2)C[C@@H]1F [Example 204, 7-(5-(5-((3S,4S)-3-fluoro-4-hydroxy-4-methylpiperidin-1-yl)-1,3,4-thiadiazol-2-yl)-4-((tetrahydro-2H-pyran-4-yl)amino)pyridin-2-yl)pyrrolo[1,2-b]pyridazine-3-carbonitrile] | 3.5 | 0.35 | 
CC(C)Nc1cc(-c2ccc3cc(C#N)cnn23)ncc1-c1nnc(C(=O)N2CC[C@@H](O)C2)s1 [Example 17, (R)-7-(5-(5-(3-hydroxypyrrolidine-1-carbonyl)-1,3,4-thiadiazol-2-yl)-4-(isopropylamino)pyridin-2-yl)pyrrolo[1,2-b]pyridazine-3-carbonitrile] |  |  | EC50 (TNFα; [3]): 55 nM; IC50 (IRAK4 enzyme; [4]): 1 nM
CC(=O)NC1CCC2(CC1)CN(c1nnc(-c3cnc(-c4ccc5cc(C#N)cnn45)cc3NC(C)C)s1)C2 [Example 69, N-(2-(5-(6-(3-cyanopyrrolo[1,2-b]pyridazin-7-yl)-4-(isopropylamino)pyridin-3-yl)-1,3,4-thiadiazol-2-yl)-2-azaspiro[3.5]nonan-7-yl)acetamide] | 11.8 | 1.16 | 
CC(=O)NC1CCCN(c2nnc(-c3cnc(-c4ccc5cc(C#N)cnn45)cc3NC(C)C)s2)CC1 (stereo not drawn) [Example 298, N-(1-(5-(6-(3-cyanopyrrolo[1,2-b]pyridazin-7-yl)-4-(isopropylamino)pyridin-3-yl)-1,3,4-thiadiazol-2-yl)azepan-4-yl)acetamide] | 36.3 | 0.61 | 
C[C@H](C#N)Nc1cc(-c2ccc3cc(C#N)cnn23)ncc1-c1nnc(N2CC3CC(C2)O3)s1 [Example 178, 7-(5-(5-(6-oxa-3-azabicyclo[3.1.1]heptan-3-yl)-1,3,4-thiadiazol-2-yl)-4-(((R)-1-cyanoethyl)amino)pyridin-2-yl)pyrrolo[1,2-b]pyridazine-3-carbonitrile] |  | 0.45 | EC50 (TNFα; [2]): 4.9 nM

Reference: US11046686B2, “Thiadiazole IRAK4 compounds” (Gilead Sciences, Inc., priority 2018, dated 2021)
